Patent US20120082632A1, “Topical drug delivery system with dual carriers” (priority 2010, published 2012)

Columns and labels:
[1] = tested on: Staph aureus, MRSA, Klebsiella pneumoniae, E. coli, Proteus vulgaris, Pseudomonas aeruginosa, Enterobacter cloacae, Acinetobacter lwoffi, Acinetobacter …; test: In-vitro comparison of Lots with different anti-oxidant amounts and control agents (FIGS. 16-27); format: cell-based; settings: identical size drops; FIG. 16 Staph aureus, FIG. 17 MRSA, FIGS. 18-24 gram-negative cultures, FIG. 25 Enterococcus faecalis
HL-60 cells = settings: cited from earlier work
[2] = tested on: MRSA infection and Grade I diabetic ulcer of the left hallux with cellulitus; test: Study III: human field study, diabetic foot lesion of great toe; format: in vivo; settings: IV; 8 days following admission
Experimental: In this embodiment, the additional ingredient to hasten a third therapeutic tissue healing effect was added. This embodiment used vitamin D in a small but medically efficacious amount.

[3] = tested on: mouse embryonic stem cells and embryoid bodies; settings: cited from earlier work

Compound: CO[C@@]1(NC(=O)Cc2cccs2)C(=O)N2C(C(=O)O)=C(COC(N)=O)CS[C@@H]21 [Cefoxicillin]
- zones of inhibition of control agents compared with the formulations of the invention [1]: considerably reduced zones of inhibition

Compound: vitamin D
- amount at which desired cellular responses occurred (HL-60 cells): about 100 nM
- subsequent retinoid-induced TGM2 expression after priming by pretreatment (HL-60 cells): increases

Compound: CN[C@H](CC(C)C)C(=O)N[C@H]1C(=O)N[C@@H](CC(N)=O)C(=O)N[C@H]2C(=O)N[C@H]3C(=O)N[C@H](C(=O)N[C@H](C(=O)O)c4cc(O)cc(O)c4-c4cc3ccc4O)[C@H](O)c3ccc(c(Cl)c3)Oc3cc2cc(c3O[C@@H]2O[C@H](CO)[C@@H](O)[C@H](O)[C@H]2O[C@H]2C[C@](C)(N)[C@H](O)[C@H](C)O2)Oc2ccc(cc2Cl)[C@H]1O [Vancomycin]
- patient response to treatment for MRSA [2]: did not respond
- zones of inhibition of control agents compared with the formulations of the invention [1]: considerably reduced zones of inhibition

Compound: CC[C@H]1OC(=O)[C@H](C)[C@@H](O[C@H]2C[C@@](C)(OC)[C@@H](O)[C@H](C)O2)[C@H](C)[C@@H](O[C@@H]2O[C@H](C)C[C@H](N(C)C)[C@H]2O)[C@](C)(O)C[C@@H](C)C(=O)[C@H](C)[C@@H](O)[C@]1(C)O [Erythromycin]
- zones of inhibition of control agents compared with the formulations of the invention [1]: considerably reduced zones of inhibition

Compound: C[S+](C)[O-] [DMSO, dimethyl sulfoxide]
- amount at which desired cellular responses occurred (HL-60 cells): less than 2%
- subsequent retinoid-induced TGM2 expression after priming by pretreatment (HL-60 cells): increases
- effect on mRNA and protein expression in epigenetic profiles [3]: upregulation of mRNA and protein expression
